Where a name gives a salt, the structure may show the parent alone.
Legend:
[1] = biological target: T1, human recombinant 5-HT2B receptor (Homo sapiens, UniProt P41595); experiment: Affinity for 5-HT2B receptor binding sites (competitive radioligand binding, [3H]mesulergine); settings: membranes of CHO with h5-HT2B, * = tested as hydrochloride salt
T1 construct: expressed in transfected cells; host or cells: CHO
How it was run: (§1)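 Membranes from NIH3T3 cells stably expressing h5-HT2A or CHO cells stably expressing h5-HT2B/h5-HT2C; [3H]ketanserin used for 5-HT2A, [3H]mesulergine for 5-HT2B/2C. Compounds from 10 mM DMSO stocks, final DMSO ≤0.4%. Affinity from sigmoidal inhibition curves fitted by nonlinear regression.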

rat 5-HT7a receptor = biological target: T2, rat 5-HT7a receptor (Rattus norvegicus, UniProt P32305); experiment: Affinity for 5-HT7 receptor binding sites (competition radioligand binding, [3H]5-CT); settings: membranes of HEK-293 cells with rat 5-HT7a; 1 nM [3H]5-CT; * = tested as hydrochloride salt
T2 construct: expressed in transfected cells; host or cells: HEK-293
Description: Stock drug solutions (10 mM) were prepared in DMSO (the final assay concentration of DMSO not exceeding 0.4%). Drug dilutions were prepared in assay buffer.
Sigmoidal inhibition curves were generated and fitted by nonlinear regression analysis (GraphPad Prism).
1. Affinity for 5-HT7 Receptor Binding Sites
The affinity of the compounds described in this invention for the 5-HT7 receptor binding site was evaluated by single competition radioligand binding assay. The assay was performed on membranes prepared from HEK-293 cells that had been subjected to stable transfection with the rat 5-HT7a receptor (GB: NM022938). Cells were scraped from the culture plates, suspended in Tris-HCl 50 mM pH 7.5 and collected through centrifugation (1000 rpm for 5 min). The cell pellets were homogenized (Polytron, 15 s, setting 5) in 50 mM Tris-HCl (pH 7.5), 5 mM EDTA. Following centrifugation (15,000 rpm for 25 min), membranes (135 μg protein/mL) were resuspended in the same buffer and incubated for 60 min at RT with 1 nM [^3H]5-CT in the presence of increasing concentration of test compounds. Nonspecific binding was defined in the presence of 10 μM 5-HT. Incubation was stopped by rapid filtration using the cell harvester (Packard). Radioactivity was counted in a TopCount-NXT (Packard). Experiments were conducted in triplicate.

[2] = biological target: T3, human recombinant 5-HT2A receptor (Homo sapiens, UniProt P28223); experiment: Affinity for 5-HT2A receptor binding sites (competitive radioligand binding, [3H]ketanserin); settings: membranes of NIH3T3 with h5-HT2A, * = tested as hydrochloride salt
T3 construct: expressed in transfected cells; host or cells: NIH3T3
How it was run: as §1

[3] = biological target: T4, human recombinant 5-HT6 receptor (Homo sapiens, UniProt P50406); experiment: Affinity for 5-HT6 receptor binding sites (competitive radioligand binding, [3H]LSD); settings: membranes of HEK-293 with h5-HT6, * = tested as hydrochloride salt
T4 construct: expressed in transfected cells; host or cells: HEK-293
How it was run: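 Membranes from HEK-293 cells stably expressing human 5-HT6, competition against [3H]LSD; nonspecific binding defined with 1 μM clozapine. DMSO ≤0.4% final. Inhibition curves fitted by nonlinear regression.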

[4] = biological target: T5, human recombinant 5-HT2C receptor (Homo sapiens, UniProt P28335); experiment: Affinity for 5-HT2C receptor binding sites (competitive radioligand binding, [3H]mesulergine); settings: membranes of CHO with h5-HT2C, * = tested as hydrochloride salt
T5 construct: expressed in transfected cells; host or cells: CHO
T5 sequence (P28335 33-458): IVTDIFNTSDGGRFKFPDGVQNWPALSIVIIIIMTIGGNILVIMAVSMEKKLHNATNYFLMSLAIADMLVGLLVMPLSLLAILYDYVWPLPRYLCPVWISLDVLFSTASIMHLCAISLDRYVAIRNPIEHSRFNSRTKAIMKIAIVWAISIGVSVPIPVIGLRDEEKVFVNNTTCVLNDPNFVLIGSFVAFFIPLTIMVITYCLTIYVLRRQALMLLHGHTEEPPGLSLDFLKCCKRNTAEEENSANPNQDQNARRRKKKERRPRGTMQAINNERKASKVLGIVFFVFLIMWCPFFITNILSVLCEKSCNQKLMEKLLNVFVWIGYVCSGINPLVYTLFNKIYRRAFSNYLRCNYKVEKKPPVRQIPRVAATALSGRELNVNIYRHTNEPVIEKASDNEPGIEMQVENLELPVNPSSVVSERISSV
How it was run: as §1

T2 sequence (P32305 whole entry): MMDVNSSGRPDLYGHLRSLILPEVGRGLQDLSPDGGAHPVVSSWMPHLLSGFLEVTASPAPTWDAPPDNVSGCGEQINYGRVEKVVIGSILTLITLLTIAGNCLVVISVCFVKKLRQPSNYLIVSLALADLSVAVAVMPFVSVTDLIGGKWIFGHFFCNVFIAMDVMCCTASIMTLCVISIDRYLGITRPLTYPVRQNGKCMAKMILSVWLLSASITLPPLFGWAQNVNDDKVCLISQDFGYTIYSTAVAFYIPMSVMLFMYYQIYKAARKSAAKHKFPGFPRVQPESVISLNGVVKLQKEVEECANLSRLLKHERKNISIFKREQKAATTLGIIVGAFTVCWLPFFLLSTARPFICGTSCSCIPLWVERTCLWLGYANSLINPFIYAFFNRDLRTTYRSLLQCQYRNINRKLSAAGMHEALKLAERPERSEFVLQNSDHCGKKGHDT
T1 sequence (P41595 whole entry): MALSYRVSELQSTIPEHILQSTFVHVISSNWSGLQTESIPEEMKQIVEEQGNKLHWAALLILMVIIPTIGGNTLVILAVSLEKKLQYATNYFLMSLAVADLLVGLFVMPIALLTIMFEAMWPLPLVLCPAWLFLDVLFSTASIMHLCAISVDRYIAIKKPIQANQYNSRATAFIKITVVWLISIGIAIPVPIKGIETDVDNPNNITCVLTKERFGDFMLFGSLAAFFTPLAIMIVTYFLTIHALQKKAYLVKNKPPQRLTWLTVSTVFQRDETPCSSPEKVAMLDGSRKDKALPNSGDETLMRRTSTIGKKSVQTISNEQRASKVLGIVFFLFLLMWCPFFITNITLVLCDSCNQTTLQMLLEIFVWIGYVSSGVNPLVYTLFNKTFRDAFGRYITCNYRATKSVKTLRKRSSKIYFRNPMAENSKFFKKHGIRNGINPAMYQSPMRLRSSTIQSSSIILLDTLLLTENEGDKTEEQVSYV
T3 sequence (P28223 whole entry): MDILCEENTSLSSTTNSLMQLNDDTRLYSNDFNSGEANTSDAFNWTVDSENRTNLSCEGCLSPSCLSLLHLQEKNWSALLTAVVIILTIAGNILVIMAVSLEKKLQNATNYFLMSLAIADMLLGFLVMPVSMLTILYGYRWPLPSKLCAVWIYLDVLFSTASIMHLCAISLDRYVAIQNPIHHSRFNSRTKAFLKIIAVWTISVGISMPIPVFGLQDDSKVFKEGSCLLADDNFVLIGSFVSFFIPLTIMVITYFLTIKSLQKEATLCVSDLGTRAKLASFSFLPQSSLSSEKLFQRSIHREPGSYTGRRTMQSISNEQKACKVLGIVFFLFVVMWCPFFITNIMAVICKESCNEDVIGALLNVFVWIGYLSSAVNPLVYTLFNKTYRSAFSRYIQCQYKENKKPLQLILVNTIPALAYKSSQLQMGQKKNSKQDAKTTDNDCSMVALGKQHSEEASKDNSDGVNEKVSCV
T4 sequence (P50406 whole entry): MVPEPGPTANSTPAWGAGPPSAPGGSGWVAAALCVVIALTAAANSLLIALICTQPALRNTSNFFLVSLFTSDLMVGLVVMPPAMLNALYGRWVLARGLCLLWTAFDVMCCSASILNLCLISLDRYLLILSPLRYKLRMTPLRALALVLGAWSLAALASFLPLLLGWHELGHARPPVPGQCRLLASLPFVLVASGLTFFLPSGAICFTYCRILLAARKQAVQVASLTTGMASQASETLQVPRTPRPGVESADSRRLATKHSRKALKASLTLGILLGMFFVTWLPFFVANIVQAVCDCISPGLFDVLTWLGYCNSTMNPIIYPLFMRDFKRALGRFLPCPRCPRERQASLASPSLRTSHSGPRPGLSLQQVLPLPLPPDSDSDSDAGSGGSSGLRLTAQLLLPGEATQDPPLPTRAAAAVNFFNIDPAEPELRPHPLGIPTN

Row | Compound | Ki [1] | Ki (rat 5-HT7a receptor) | Ki [2] | Ki [3] | Ki [4]
1 | CCN(CC)c1nc2c(c(-c3ccc(OC)cc3)n1)CCCNC2 [Example 3, Diethyl-[4-(4-methoxy-phenyl)-6,7,8,9-tetrahydro-5H-pyrimido[4,5-c]azepin-2-yl]-amine] | 20 nM | 240 nM | 200 nM | 160 nM | 400 nM
2 | CCN(CC)c1nc2c(c(-c3ccc(F)cc3)n1)CCNCC2 [Example 9, Diethyl-[4-(4-fluoro-phenyl)-6,7,8,9-tetrahydro-5H-pyrimido[4,5-d]azepin-2-yl]-amine hydrochloride] | 7 nM | 29 nM | 20 nM | 84 nM | 40 nM
3 | Cc1ccc(-c2nc(N(C)C)nc3c2CNCC3)cc1 [Example 61, Dimethyl-(4-p-tolyl-5,6,7,8-tetrahydro-pyrido[4,3-d]pyrimidin-2-yl)-amine] | 620 nM | 9000 nM | 420 nM | 2290 nM | 5000 nM
4 | CCN(CC)c1nc2c(c(-c3ccc(Cl)cc3)n1)CNCCC2 [Example 59, [4-(4-Chloro-phenyl)-6,7,8,9-tetrahydro-5H-1,3,6-triaza-benzocyclohepten-2-yl]-diethyl-amine hydrochloride] | – | > 10000 nM | – | 1480 nM | –
5 | Fc1ccc(-c2nc(N3CCOCC3)nc3c2CNCC3)cc1 [Example 42, 4-(4-Fluoro-phenyl)-2-morpholin-4-yl-5,6,7,8-tetrahydro-pyrido[4,3-d]pyrimidine] | 2050 nM | > 10000 nM | 20 nM | 9770 nM | 500 nM
6 | Cc1ccc(-c2nc(N3CCOCC3)nc3c2CNCC3)cc1 [Example 49, 2-Morpholin-4-yl-4-p-tolyl-5,6,7,8-tetrahydro-pyrido[4,3-d]pyrimidine] | 5010 nM | 530 nM | 100 nM | 2090 nM | 630 nM
7 | CCN(CC)c1nc2c(c(-c3ccc(F)cc3)n1)CCCNC2 [Example 1, Diethyl-[4-(4-fluoro-phenyl)-6,7,8,9-tetrahydro-5H-pyrimido[4,5-c]azepin-2-yl]-amine] | 32 nM | 470 nM | 20 nM | 2260 nM | 300 nM
8 | CC1CCCCN1c1nc2c(c(-c3ccc(C#N)cc3)n1)CCCNC2 (stereo not shown) [Example 7, 4-[2-(2-Methyl-piperidin-1-yl)-6,7,8,9-tetrahydro-5H-pyrimido[4,5-c]azepin-4-yl]-benzonitrile] | 280 nM | > 10000 nM | 400 nM | 1240 nM | 3200 nM
9 | CCN(CC)c1nc2c(c(-c3ccc(F)cc3)n1)CCNC2 [Example 24, Diethyl-[4-(4-fluoro-phenyl)-5,6,7,8-tetrahydro-pyrido[3,4-d]pyrimidin-2-yl]-amine] | 7 nM | 50 nM | 3 nM | 933 nM | 120 nM
10 | CCN(CC)c1nc2c(c(-c3ccc(OC)cc3)n1)CCNC2 [Example 28, Diethyl-[4-(4-methoxy-phenyl)-5,6,7,8-tetrahydro-pyrido[3,4-d]pyrimidin-2-yl]-amine] | 15 nM | 130 nM | 70 nM | 1510 nM | 280 nM
11 | CC(C)N(c1nc2c(c(-c3ccc(F)cc3)n1)CNCC2)C(C)C [Example 43, [4-(4-Fluoro-phenyl)-5,6,7,8-tetrahydro-pyrido[4,3-d]pyrimidin-2-yl]-diisopropyl-amine hydrochloride] | 100 nM | 320 nM | 3 nM | 195 nM | 150 nM
12 | CCNc1nc2c(c(-c3ccc(C)cc3)n1)CNCC2 [Example 48, Ethyl-(4-p-tolyl-5,6,7,8-tetrahydro-pyrido[4,3-d]pyrimidin-2-yl)-amine] | 3000 nM | > 10000 nM | 2000 nM | > 10000 nM | > 10000 nM
13 | CCN(CC)c1nc2c(c(-c3ccc(C)cc3)n1)CCCNC2 [Example 2] | 25 nM | 220 nM | 170 nM | 300 nM | 430 nM
14 | COc1ccc(-c2nc(N3CCCCC3C)nc3c2CCCNC3)cc1 (stereo not shown) [Example 5, 4-(4-Methoxy-phenyl)-2-(2-methyl-piperidin-1-yl)-6,7,8,9-tetrahydro-5H-pyrimido[4,5-c]azepine hydrochloride] | 200 nM | > 10000 nM | 1500 nM | 127 nM | 1800 nM
15 | CCN(CC)c1nc2c(c(-c3ccncc3)n1)CCNCC2 [Example 10, Diethyl-(4-pyridin-4-yl-6,7,8,9-tetrahydro-5H-pyrimido[4,5-d]azepin-2-yl)-amine hydrochloride] | 50 nM | 1200 nM | 500 nM | 1460 nM | > 10000 nM
16 | CCN(CC)c1nc2c(c(-c3ccc(C#N)cc3)n1)CCNCC2 [Example 14, 4-(2-Diethylamino-6,7,8,9-tetrahydro-5H-pyrimido[4,5-d]azepin-4-yl)-benzonitrile hydrochloride] | 5 nM | 63 nM | 40 nM | 220 nM | 130 nM
17 | CCN(CC)c1nc2c(c(-c3ccc(F)cc3)n1)CCN(Cc1ccccc1)C2 [Example 23, [7-Benzyl-4-(4-fluoro-phenyl)-5,6,7,8-tetrahydro-pyrido[3,4-d]pyrimidin-2-yl]-diethyl-amine] | 350 nM | 620 nM | 60 nM | – | 2800 nM
18 | Fc1ccc(-c2nc(N3CCCCCC3)nc3c2CCN(Cc2ccccc2)C3)cc1 [Example 31, 2-Azepan-1-yl-7-benzyl-4-(4-fluoro-phenyl)-5,6,7,8-tetrahydro-pyrido[3,4-d]pyrimidine] | 1600 nM | > 10000 nM | 230 nM | – | 3200 nM
19 | CCN(CC)c1nc2c(c(-c3ccc(OC)cc3)n1)CNCCC2 [Example 17, Diethyl-[4-(4-methoxy-phenyl)-6,7,8,9-tetrahydro-5H-1,3,6-triaza-benzocyclohepten-2-yl]-amine] | 630 nM | > 10000 nM | 900 nM | – | 2500 nM
20 | Fc1ccc(-c2nc(N3CCCCCC3)nc3c2CCNC3)cc1 [Example 32, 2-Azepan-1-yl-4-(4-fluoro-phenyl)-5,6,7,8-tetrahydro-pyrido[3,4-d]pyrimidine] | 30 nM | 270 nM | 9 nM | – | 110 nM
21 | CCN(C)c1nc2c(c(-c3ccc(F)cc3)n1)CNCC2 [Example 44, Ethyl-[4-(4-fluoro-phenyl)-5,6,7,8-tetrahydro-pyrido[4,3-d]pyrimidin-2-yl]-methyl-amine hydrochloride] | 180 nM | 2000 nM | 9.5 nM | – | 300 nM
22 | CC1CCCN1c1nc2c(c(-c3ccc(Cl)cc3)n1)CCNCC2 (stereo not shown) [Example 54, 4-(4-Chloro-phenyl)-2-(2-methyl-pyrrolidin-1-yl)-6,7,8,9-tetrahydro-5H-pyrimido[4,5-d]azepine] | 5 nM | 370 nM | 30 nM | – | 89 nM
23 | Fc1ccc(-c2nc(N3CCCCC3)nc3c2CNCCC3)cc1 [Example 20, 4-(4-Fluoro-phenyl)-2-piperidin-1-yl-6,7,8,9-tetrahydro-5H-1,3,6-triaza-benzocycloheptene hydrochloride] | 790 nM | > 10000 nM | 300 nM | – | 6310 nM
24 | N#Cc1ccc(-c2nc(N3CCCCCC3)nc3c2CCN(Cc2ccccc2)C3)cc1 [Example 37, 4-(2-Azepan-1-yl-7-benzyl-5,6,7,8-tetrahydro-pyrido[3,4-d]pyrimidin-4-yl)-benzonitrile] | 1300 nM | > 10000 nM | 2400 nM | – | > 10000 nM
